Measurements: patent publication US20260250318A1, “COMPOSITIONS AND METHODS FOR CROSSING THE BLOOD BRAIN BARRIER” (VOYAGER THERAPEUTICS, INC., priority 2022, published 2026)

Assays:
[1] = tested on: brains, heart, liver, muscle, and DRG of the NHPs; assay: Maturation of TTM-001 and TTM-002 capsids, NGS enrichment in NHP tissues; assay type: in vivo; conditions: relative to AAV9 control
Outline: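 Variants carry mutations within and flanking the loop IV peptide insert: positions 450–466 were triplet-randomized, while positions 449–466 received low-frequency point mutations. The combined pool went into two NHPs, and each peptide was scored by NGS enrichment ratio against AAV9.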

brain = assay: Matured TTM-001 and TTM-002 variants, NGS enrichment in mouse brain; assay type: in vivo, mice; conditions: relative to AAV9 control
[2] = NGS fold-enrichment of RNA, NHP brain
[3] = NGS fold-enrichment, NHP liver DNA
[4] = NGS fold-enrichment, NHP liver RNA
[5] = NGS fold-enrichment, NHP muscle
[6] = NGS fold-enrichment, mouse brain
[7] = NGS fold-enrichment of matured AAV capsid variants, NHP brain, RNA
[8] = NGS fold-enrichment, DRG of NHPs
[9] = NGS fold-enrichment, RNA, brain of NHPs
[10] = NGS fold-enrichment, heart of NHPs
[11] = NGS fold-enrichment, liver DNA of NHPs
[12] = NGS fold-enrichment, liver RNA of NHPs
[13] = NGS fold-enrichment, muscle of NHPs
[14] = NGS fold-enrichment, brain of mice

Sequence | Fold Enrichment relative to AAV9, Brain (NHP) [1, 2] [fold] | Fold Enrichment relative to AAV9, DRG (NHP) ([1]; NGS fold-enrichment, NHP DRG) [fold] | Fold Enrichment relative to AAV9, Heart (NHP) ([1]; NGS fold-enrichment, NHP heart) [fold] | Fold Enrichment relative to AAV9, Liver DNA (NHP) [1, 3] [fold] | Fold Enrichment relative to AAV9, Liver RNA (NHP) [1, 4] [fold] | Fold Enrichment relative to AAV9, Muscle (NHP) [1, 5] [fold] | Fold Enrichment relative to AAV9, Brain (Mouse) (brain; [6]) [fold] | also measured
KAINGHDSPHKSAQSQQT | 95.204 | 0.146 | 0.310 | 0.058 | 0.699 | 0.000 | 14.595 | –
KAINGHDSPHKSEKNQQT | 77.103 | 0.000 | 0.274 | 0.000 | 0.000 | 0.000 | 26.868 | –
KAINGHDSPHKSGPRQQT | 145.142 | 0.000 | 0.408 | 0.000 | 0.000 | 0.000 | 8.259 | –
KAINGHDSPHKSGQIRQT | 108.510 | 0.000 | 23.908 | 0.261 | 0.132 | 0.000 | 8.862 | –
KAINGHDSPHKSGQSPQT | 75.734 | 0.095 | 0.148 | 0.238 | 0.000 | 0.000 | 14.195 | –
KAINGPDSPHKSGQKQQT | 78.213 | 0.464 | 0.047 | 0.162 | 0.323 | 0.000 | 10.395 | –
KAINGSGSPHSKAHNQET | – | – | – | – | – | – | – | Fold Enrichment relative to AAV9, Brain (NHP) [1, 7]: 52.973 fold; Fold Enrichment relative to AAV9, DRG (NHP) ([1]; NHP DRG): 0.000 fold; Fold Enrichment relative to AAV9, Heart (NHP) ([1]; NHP heart): 0.030 fold; Fold Enrichment relative to AAV9, Liver DNA (NHP) ([1]; NHP liver, DNA): 0.058 fold; Fold Enrichment relative to AAV9, Liver RNA (NHP) ([1]; NHP liver, RNA): 0.035 fold; Fold Enrichment relative to AAV9, Muscle (NHP) ([1]; NHP muscle): 0.000 fold; Fold Enrichment relative to AAV9, Brain (Mouse) (brain; mouse brain): 71.809 fold
KAINGSGSPHSKAQDKQT | – | – | – | – | – | – | – | Fold Enrichment relative to AAV9, Brain (NHP) [1, 7]: 54.452 fold; Fold Enrichment relative to AAV9, DRG (NHP) ([1]; NHP DRG): 0.000 fold; Fold Enrichment relative to AAV9, Heart (NHP) ([1]; NHP heart): 0.000 fold; Fold Enrichment relative to AAV9, Liver DNA (NHP) ([1]; NHP liver, DNA): 0.223 fold; Fold Enrichment relative to AAV9, Liver RNA (NHP) ([1]; NHP liver, RNA): 0.044 fold; Fold Enrichment relative to AAV9, Muscle (NHP) ([1]; NHP muscle): 0.057 fold; Fold Enrichment relative to AAV9, Brain (Mouse) (brain; mouse brain): 56.004 fold
KAINGSGSPHSKAQDQET | 84.080 | 0.000 | 0.000 | 0.027 | 0.194 | 0.000 | 87.637 | Fold Enrichment relative to AAV9, DRG (NHP) [1, 8]: 0.000 fold; Fold Enrichment relative to AAV9, Brain (NHP) [1, 9]: 84.080 fold; Fold Enrichment relative to AAV9, Heart (NHP) [1, 10]: 0.000 fold; Fold Enrichment relative to AAV9, Liver DNA (NHP) [1, 11]: 0.027 fold; Fold Enrichment relative to AAV9, Liver RNA (NHP) [1, 12]: 0.194 fold; Fold Enrichment relative to AAV9, Muscle (NHP) [1, 13]: 0.000 fold; Fold Enrichment relative to AAV9, Brain (Mouse) (brain; [14]): 87.637 fold
KAINGSGSPHSKAQNAQT | – | – | – | – | – | – | – | Fold Enrichment relative to AAV9, DRG (NHP) [1, 8]: 0.000 fold; Fold Enrichment relative to AAV9, Brain (NHP) [1, 9]: 69.651 fold; Fold Enrichment relative to AAV9, Heart (NHP) [1, 10]: 0.000 fold; Fold Enrichment relative to AAV9, Liver DNA (NHP) [1, 11]: 0.142 fold; Fold Enrichment relative to AAV9, Liver RNA (NHP) [1, 12]: 0.023 fold; Fold Enrichment relative to AAV9, Muscle (NHP) [1, 13]: 0.000 fold; Fold Enrichment relative to AAV9, Brain (Mouse) (brain; [14]): 72.160 fold
KAINGSGSPHSKAQNLAT | 101.954 | 0.000 | 10.954 | 0.239 | 0.298 | 8.655 | 116.685 | Fold Enrichment relative to AAV9, DRG (NHP) [1, 8]: 0.000 fold; Fold Enrichment relative to AAV9, Brain (NHP) [1, 9]: 101.954 fold; Fold Enrichment relative to AAV9, Heart (NHP) [1, 10]: 10.954 fold; Fold Enrichment relative to AAV9, Liver DNA (NHP) [1, 11]: 0.239 fold; Fold Enrichment relative to AAV9, Liver RNA (NHP) [1, 12]: 0.298 fold; Fold Enrichment relative to AAV9, Muscle (NHP) [1, 13]: 8.655 fold; Fold Enrichment relative to AAV9, Brain (Mouse) (brain; [14]): 116.685 fold
KAINGSGSPHSKAQSQQI | – | – | – | – | – | – | – | Fold Enrichment relative to AAV9, Brain (NHP) [1, 7]: 56.976 fold; Fold Enrichment relative to AAV9, DRG (NHP) ([1]; NHP DRG): 0.000 fold; Fold Enrichment relative to AAV9, Heart (NHP) ([1]; NHP heart): 0.000 fold; Fold Enrichment relative to AAV9, Liver DNA (NHP) ([1]; NHP liver, DNA): 0.000 fold; Fold Enrichment relative to AAV9, Liver RNA (NHP) ([1]; NHP liver, RNA): 0.000 fold; Fold Enrichment relative to AAV9, Muscle (NHP) ([1]; NHP muscle): 0.000 fold; Fold Enrichment relative to AAV9, Brain (Mouse) (brain; mouse brain): 57.052 fold
KAINGYDSPHKSGQKQQT | 83.803 | 0.041 | 9.491 | 0.150 | 0.031 | 0.000 | 13.057 | –
KAINRSGSPHSKAQDQQT | – | – | – | – | – | – | – | Fold Enrichment relative to AAV9, Brain (NHP) [1, 7]: 51.262 fold; Fold Enrichment relative to AAV9, DRG (NHP) ([1]; NHP DRG): 0.000 fold; Fold Enrichment relative to AAV9, Heart (NHP) ([1]; NHP heart): 0.000 fold; Fold Enrichment relative to AAV9, Liver DNA (NHP) ([1]; NHP liver, DNA): 0.036 fold; Fold Enrichment relative to AAV9, Liver RNA (NHP) ([1]; NHP liver, RNA): 0.000 fold; Fold Enrichment relative to AAV9, Muscle (NHP) ([1]; NHP muscle): 0.000 fold; Fold Enrichment relative to AAV9, Brain (Mouse) (brain; mouse brain): 54.631 fold
KAISGHDSPHKSGLNQQT | 78.846 | 0.000 | 0.079 | 0.015 | 0.000 | 0.000 | 11.045 | –
KATNGSGSPHSKAQNHQT | 82.627 | 0.000 | 0.176 | 0.057 | 0.155 | 0.000 | 66.207 | Fold Enrichment relative to AAV9, DRG (NHP) [1, 8]: 0.000 fold; Fold Enrichment relative to AAV9, Brain (NHP) [1, 9]: 82.627 fold; Fold Enrichment relative to AAV9, Heart (NHP) [1, 10]: 0.176 fold; Fold Enrichment relative to AAV9, Liver DNA (NHP) [1, 11]: 0.057 fold; Fold Enrichment relative to AAV9, Liver RNA (NHP) [1, 12]: 0.155 fold; Fold Enrichment relative to AAV9, Muscle (NHP) [1, 13]: 0.000 fold; Fold Enrichment relative to AAV9, Brain (Mouse) (brain; [14]): 66.207 fold
